{"source": "patent US20250144120A1", "about": "“COMPOSITIONS AND METHODS FOR TREATING SKIN CONDITIONS” (priority 2023, published 2025)", "origin": "cited, not measured here", "data": [{"compound": "CCCCCCCCCCCCCCCCCCCCC[N+](C)(C)[Si](O)(O)O.[Cl-]", "note": "[Octadecyldimethyltrihydroxysilyl propyl ammonium chloride]", "values": [{"measurement": "skin irritation", "setting": "skin (guinea pigs)", "value": "does not irritate"}, {"measurement": "skin irritation", "setting": "skin (rabbits)", "value": "does not irritate"}, {"measurement": "eye irritation", "setting": "eyes (rabbits)", "value": "does not irritate"}, {"measurement": "LD50 via ingestion", "setting": "animal subjects; ingestion", "value": "> 5000", "unit": "mg/kg"}, {"measurement": "LD50 via inhalation", "setting": "animal subjects; inhalation", "value": "> 2", "unit": "mg/L"}]}]}
